According to ChEMBL document CHEMBL5465560, “Selectivity Literature for EUbOPEN Chemogenomic Library” (2024):
pIC50: −log10 of the molar value. Values belong to the compound of their own block, whether it stands above or below them.

Experiments:
[1] = target: NT-3 growth factor receptor (Homo sapiens, UniProt Q16288); test: Selectivity interaction (Kinase panel (Invitrogen)) EUB0000639a NTRK3; conditions: at 200 nM
[2] = target: T1, Mitogen-activated protein kinase 13 (Homo sapiens) (UniProt O15264); test: Selectivity interaction (ActivX KiNativ screen (kinase selectivity in THP-1 cell lysates)) EUB0000639a MAPK13; type: subcellular; conditions: lysate
T1 sequence (whole entry): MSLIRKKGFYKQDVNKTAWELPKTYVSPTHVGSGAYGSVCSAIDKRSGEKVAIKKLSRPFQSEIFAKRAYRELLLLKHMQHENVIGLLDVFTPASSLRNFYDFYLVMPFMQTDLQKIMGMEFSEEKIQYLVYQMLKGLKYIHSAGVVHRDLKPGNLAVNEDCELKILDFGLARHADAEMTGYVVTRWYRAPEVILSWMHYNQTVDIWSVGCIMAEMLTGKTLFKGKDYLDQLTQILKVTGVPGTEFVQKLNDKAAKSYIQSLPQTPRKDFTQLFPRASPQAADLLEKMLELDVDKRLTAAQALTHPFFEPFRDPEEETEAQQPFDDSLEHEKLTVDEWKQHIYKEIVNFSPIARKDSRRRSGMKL

[3] = target: Tyrosine-protein kinase JAK2 (Homo sapiens, UniProt O60674); test: Selectivity interaction (Enyzmatic assay) EUB0000601a JAK2
[4] = target: Mitogen-activated protein kinase 6 (Homo sapiens) (UniProt Q16659); test: Selectivity interaction (KinomeScan (DiscoverX)) EUB0000595a MAPK6; conditions: at 10 µM
[5] = target: Non-receptor tyrosine-protein kinase TYK2 (Homo sapiens, UniProt P29597); test: Selectivity interaction (KinomeScan (DiscoverX)) EUB0001049a TYK2; conditions: at 1 µM
[6] = target: Mitogen-activated protein kinase kinase kinase 11 (Homo sapiens) (UniProt Q16584); test: Selectivity interaction (Kinase panel (KiNativ target engagement assay in Jurkat cells)) EUB0001635a MAP3K11; type: cell-based; conditions: Selectivity number of off-targets 0.0, Selectivity number of targets 233.0, Source Knowledge https://www.sciencedirect.com/science/article/pii/S2451945619300674?via%3Dihub, at 1 µM
[7] = target: T2, Serine/threonine-protein kinase ICK (Homo sapiens) (UniProt Q9UPZ9); test: Selectivity interaction (KinomeScan (DiscoverX)) EUB0000092b ICK; conditions: at 10 µM
T2 sequence (whole entry): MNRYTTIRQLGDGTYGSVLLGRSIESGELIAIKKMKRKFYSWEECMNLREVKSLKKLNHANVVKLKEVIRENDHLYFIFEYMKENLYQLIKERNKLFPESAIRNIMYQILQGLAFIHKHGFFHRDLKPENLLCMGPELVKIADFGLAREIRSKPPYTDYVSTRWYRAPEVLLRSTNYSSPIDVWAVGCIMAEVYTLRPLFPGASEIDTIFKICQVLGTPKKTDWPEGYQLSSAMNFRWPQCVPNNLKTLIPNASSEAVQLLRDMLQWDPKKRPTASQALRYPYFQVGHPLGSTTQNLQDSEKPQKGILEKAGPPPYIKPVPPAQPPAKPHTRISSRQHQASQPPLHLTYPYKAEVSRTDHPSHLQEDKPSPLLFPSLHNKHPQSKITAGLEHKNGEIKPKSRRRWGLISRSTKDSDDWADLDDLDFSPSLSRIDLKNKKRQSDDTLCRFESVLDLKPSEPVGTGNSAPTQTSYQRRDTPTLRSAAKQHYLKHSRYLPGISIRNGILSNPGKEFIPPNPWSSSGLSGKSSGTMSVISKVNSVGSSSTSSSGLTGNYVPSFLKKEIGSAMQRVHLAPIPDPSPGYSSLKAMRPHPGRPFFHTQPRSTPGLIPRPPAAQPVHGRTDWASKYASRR

[8] = target: T3, Mitogen-activated protein kinase kinase kinase 3 (Homo sapiens) (UniProt Q99759); test: Selectivity interaction (KinomeScan (DiscoverX)) EUB0000618a MAP3K3; conditions: at 10 µM
T3 sequence (whole entry): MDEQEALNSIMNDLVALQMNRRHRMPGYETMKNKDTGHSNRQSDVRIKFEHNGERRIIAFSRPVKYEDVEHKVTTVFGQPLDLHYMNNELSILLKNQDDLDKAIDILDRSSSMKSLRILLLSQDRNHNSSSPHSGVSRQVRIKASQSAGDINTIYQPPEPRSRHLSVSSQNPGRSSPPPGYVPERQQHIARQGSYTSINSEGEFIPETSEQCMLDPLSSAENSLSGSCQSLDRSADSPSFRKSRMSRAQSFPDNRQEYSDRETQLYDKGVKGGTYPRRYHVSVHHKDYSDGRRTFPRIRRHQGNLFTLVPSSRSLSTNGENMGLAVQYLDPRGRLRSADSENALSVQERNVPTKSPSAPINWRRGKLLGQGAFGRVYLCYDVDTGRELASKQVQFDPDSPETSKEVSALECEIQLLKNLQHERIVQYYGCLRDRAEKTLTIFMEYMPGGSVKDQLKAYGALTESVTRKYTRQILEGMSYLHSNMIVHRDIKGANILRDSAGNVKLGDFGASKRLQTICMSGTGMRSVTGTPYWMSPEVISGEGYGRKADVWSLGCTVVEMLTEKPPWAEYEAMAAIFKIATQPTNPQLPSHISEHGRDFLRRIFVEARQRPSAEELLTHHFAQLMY

[9] = target: Casein kinase II subunit alpha (Homo sapiens, UniProt P68400); test: Selectivity interaction (KinomeScan (DiscoverX)) EUB0001619a CSNK2A1; conditions: at 1 µM
Chain of Casein kinase II subunit alpha (P68400 whole entry, looked up): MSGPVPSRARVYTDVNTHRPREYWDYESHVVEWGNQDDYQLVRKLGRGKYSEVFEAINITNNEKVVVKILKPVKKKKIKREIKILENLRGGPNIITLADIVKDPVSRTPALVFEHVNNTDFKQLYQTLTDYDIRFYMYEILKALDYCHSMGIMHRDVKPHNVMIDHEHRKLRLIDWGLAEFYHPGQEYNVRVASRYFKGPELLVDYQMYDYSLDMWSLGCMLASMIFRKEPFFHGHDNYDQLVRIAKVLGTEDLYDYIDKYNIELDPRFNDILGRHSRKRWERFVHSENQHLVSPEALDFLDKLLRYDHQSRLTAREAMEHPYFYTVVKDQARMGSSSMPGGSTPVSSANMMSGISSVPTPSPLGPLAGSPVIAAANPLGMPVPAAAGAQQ

Chain of Non-receptor tyrosine-protein kinase TYK2 (P29597 whole entry): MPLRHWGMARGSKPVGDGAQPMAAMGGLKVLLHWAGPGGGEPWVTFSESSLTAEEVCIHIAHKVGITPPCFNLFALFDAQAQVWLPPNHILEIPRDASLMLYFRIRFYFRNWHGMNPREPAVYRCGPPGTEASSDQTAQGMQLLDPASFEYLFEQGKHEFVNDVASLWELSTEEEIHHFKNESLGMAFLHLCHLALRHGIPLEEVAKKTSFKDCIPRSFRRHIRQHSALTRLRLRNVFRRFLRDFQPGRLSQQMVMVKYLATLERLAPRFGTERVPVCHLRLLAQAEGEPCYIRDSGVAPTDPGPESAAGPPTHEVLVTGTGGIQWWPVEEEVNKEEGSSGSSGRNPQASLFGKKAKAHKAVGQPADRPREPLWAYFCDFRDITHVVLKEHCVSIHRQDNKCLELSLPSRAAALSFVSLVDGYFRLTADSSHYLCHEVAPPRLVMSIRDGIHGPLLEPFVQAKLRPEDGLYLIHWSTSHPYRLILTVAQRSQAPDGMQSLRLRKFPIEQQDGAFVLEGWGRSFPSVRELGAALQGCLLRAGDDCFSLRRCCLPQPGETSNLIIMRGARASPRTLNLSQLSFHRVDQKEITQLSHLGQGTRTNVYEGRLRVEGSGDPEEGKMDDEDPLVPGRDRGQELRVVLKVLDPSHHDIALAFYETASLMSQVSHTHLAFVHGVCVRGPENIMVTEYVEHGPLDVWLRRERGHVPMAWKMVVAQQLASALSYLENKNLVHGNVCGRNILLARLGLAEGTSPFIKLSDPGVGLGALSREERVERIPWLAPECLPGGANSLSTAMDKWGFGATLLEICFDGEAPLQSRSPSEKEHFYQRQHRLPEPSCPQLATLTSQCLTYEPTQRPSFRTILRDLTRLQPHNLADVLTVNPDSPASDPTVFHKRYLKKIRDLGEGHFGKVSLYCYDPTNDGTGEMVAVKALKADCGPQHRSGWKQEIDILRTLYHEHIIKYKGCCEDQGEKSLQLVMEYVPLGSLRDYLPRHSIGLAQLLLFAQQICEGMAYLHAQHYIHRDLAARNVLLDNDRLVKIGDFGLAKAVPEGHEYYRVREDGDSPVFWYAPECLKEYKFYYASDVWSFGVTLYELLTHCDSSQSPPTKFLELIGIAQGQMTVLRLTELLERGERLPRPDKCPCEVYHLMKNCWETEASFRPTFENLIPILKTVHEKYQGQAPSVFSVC
Chain of Mitogen-activated protein kinase 6 (Homo sapiens) (Q16659 whole entry): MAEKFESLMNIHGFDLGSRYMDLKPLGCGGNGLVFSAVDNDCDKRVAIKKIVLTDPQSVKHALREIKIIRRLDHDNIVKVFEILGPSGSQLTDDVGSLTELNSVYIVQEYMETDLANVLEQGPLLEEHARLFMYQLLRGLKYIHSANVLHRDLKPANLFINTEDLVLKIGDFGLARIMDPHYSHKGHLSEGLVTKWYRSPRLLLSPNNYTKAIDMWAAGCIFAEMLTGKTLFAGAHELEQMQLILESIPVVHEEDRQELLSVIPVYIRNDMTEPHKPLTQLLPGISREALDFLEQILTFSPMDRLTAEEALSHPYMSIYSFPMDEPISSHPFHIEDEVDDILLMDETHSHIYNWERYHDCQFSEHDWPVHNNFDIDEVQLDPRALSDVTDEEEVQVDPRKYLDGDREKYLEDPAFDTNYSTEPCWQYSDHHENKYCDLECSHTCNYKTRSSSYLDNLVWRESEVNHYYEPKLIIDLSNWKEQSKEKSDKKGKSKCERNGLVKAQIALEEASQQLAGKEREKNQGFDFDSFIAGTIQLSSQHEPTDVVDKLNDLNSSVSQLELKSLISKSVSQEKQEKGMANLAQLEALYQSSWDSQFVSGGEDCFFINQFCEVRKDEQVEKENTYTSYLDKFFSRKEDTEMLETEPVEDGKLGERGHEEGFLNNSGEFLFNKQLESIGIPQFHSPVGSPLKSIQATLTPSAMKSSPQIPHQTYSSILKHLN
Chain of Tyrosine-protein kinase JAK2 (O60674 whole entry): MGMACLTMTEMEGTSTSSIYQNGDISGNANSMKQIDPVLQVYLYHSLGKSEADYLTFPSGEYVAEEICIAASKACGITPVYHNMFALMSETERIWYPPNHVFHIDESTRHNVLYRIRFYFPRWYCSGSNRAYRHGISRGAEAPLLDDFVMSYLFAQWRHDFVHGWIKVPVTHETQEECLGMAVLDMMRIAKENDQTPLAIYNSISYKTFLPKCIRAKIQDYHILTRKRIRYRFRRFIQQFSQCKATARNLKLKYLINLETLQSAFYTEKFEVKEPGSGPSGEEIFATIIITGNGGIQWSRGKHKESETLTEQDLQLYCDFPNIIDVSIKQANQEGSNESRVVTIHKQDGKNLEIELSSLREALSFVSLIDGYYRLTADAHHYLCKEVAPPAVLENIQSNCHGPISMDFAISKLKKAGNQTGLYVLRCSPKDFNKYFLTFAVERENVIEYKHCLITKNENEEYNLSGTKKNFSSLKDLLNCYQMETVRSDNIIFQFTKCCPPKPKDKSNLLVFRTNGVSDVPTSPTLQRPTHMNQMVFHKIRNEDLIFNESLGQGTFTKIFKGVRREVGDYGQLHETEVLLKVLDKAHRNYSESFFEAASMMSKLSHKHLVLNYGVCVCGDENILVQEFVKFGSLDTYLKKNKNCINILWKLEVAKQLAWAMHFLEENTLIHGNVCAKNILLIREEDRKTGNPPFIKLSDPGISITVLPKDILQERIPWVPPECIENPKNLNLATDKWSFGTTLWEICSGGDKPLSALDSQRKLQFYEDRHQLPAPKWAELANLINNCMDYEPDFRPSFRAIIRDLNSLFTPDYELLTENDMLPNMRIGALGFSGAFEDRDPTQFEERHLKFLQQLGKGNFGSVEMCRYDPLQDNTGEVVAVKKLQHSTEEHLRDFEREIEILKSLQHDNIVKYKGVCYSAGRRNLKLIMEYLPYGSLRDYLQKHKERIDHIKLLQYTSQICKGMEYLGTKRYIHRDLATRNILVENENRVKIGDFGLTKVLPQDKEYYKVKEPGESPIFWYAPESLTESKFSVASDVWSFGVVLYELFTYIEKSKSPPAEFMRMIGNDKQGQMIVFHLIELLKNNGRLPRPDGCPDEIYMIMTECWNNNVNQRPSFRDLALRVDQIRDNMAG
Chain of NT-3 growth factor receptor (Q16288 32-839 limits assumed): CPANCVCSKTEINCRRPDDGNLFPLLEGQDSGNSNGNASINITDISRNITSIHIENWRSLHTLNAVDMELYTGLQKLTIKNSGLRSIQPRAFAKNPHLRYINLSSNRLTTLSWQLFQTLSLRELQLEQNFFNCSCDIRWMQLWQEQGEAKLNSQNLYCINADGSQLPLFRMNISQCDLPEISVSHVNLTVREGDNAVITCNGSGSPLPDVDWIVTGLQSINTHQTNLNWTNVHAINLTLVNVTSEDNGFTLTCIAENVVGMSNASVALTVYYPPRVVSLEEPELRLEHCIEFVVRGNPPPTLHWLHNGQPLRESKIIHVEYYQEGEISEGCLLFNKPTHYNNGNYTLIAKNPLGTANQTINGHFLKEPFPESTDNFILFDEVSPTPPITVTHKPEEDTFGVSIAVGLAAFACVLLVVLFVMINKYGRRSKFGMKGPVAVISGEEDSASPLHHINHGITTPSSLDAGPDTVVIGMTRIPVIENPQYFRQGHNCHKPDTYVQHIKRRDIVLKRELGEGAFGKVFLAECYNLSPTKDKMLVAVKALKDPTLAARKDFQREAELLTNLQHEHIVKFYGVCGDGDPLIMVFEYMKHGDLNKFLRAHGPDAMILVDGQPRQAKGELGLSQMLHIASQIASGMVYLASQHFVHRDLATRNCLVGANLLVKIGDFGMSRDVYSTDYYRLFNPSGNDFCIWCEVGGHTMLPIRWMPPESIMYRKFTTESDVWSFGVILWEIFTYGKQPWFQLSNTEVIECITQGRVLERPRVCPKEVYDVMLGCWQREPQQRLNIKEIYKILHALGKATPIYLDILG
Chain of Mitogen-activated protein kinase kinase kinase 11 (Homo sapiens) (Q16584 whole entry, looked up): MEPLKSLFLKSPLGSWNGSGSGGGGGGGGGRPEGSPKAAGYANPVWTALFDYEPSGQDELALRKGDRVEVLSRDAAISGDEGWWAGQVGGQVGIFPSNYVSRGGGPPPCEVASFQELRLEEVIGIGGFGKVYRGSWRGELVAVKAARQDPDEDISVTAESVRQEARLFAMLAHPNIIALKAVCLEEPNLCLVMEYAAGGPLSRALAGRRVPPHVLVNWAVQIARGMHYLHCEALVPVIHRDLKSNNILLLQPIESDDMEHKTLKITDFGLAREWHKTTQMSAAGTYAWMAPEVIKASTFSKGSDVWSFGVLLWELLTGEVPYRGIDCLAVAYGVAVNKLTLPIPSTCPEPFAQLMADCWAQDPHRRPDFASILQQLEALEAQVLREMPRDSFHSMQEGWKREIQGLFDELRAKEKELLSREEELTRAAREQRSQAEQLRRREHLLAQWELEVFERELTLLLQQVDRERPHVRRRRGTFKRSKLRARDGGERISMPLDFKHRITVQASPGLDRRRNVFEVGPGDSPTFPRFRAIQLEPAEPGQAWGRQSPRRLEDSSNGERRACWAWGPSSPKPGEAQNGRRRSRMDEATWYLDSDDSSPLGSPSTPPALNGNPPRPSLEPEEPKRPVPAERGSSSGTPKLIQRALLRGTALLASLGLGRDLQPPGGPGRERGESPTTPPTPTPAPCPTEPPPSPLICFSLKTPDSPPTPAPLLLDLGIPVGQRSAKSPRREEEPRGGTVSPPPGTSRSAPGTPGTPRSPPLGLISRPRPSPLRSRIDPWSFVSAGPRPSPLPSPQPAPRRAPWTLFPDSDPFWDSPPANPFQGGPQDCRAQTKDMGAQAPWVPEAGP

% of inhibition [1]: 21.9%
% of inhibition ([2]; at 0.01 µM): -4.4%
% of inhibition ([2]; at 0.04 µM): 6%
% of inhibition ([2]; at 0.2 µM): -3.6%
% of inhibition ([2]; at 1 µM): 7.4%
% of inhibition ([2]; at 5 µM): 20.3%
SMILES: CC[C@@H]1[C@H](F)C(=O)N[C@@H]1COc1nccc2cc(C(N)=O)c(OC)cc12 [ZIMLOVISERTIB]

pIC50 [3]: < 4.80
SMILES: CCc1cc(Nc2nccc(-c3c(-c4ccc(OC)c(C(=O)Nc5c(F)cccc5F)c4)nc4ccccn34)n2)c(OC)cc1N1CCC(N2CCN(S(C)(=O)=O)CC2)CC1

SMILES: COCC(=O)NC/C=C/c1ccc2ncnc(Nc3ccc(Oc4ccc(C)nc4)c(C)c3)c2c1 [CP-724714]
% of control [4]: 100%

SMILES: COc1cc(Nc2nc(C)cc(-c3cnn4nc(OC)ccc34)n2)cc(C(F)(F)F)c1
% of control [5]: 90%

SMILES: C=CC(=O)Nc1ccc(C(=O)Nc2[nH]nc3c2CN(C(=O)N[C@H](CN(C)C)c2ccccc2)C3(C)C)cc1
% of engagement [6]: -1.9%

SMILES: CCC(=O)N1CCN(c2ccc(-n3c(=O)ccc4cnc5ccc(-c6cnc7ccccc7c6)cc5c43)cc2C(F)(F)F)CC1
% of control [7]: 100%

SMILES: O[C@H]1CC[C@H](Nc2ncc3nc(Nc4c(F)cc(F)cc4F)n([C@H]4CCOC4)c3n2)CC1
% of control [8]: 83%

SMILES: N#Cc1cccc(-c2c[nH]c3ncnc(N4CCOCC4)c23)c1
% of control [9]: 75%
